Drawing on patent US11078182B2, “Heteroaromatic compounds as Vanin inhibitors” (Boehringer Ingelheim International GmbH, priority 2018, dated 2021), this text covers IC50 for 33 molecules.

Assay [1] addresses FLAG-tagged Vanin-1 (AA 22-493, T26I) (Homo sapiens (Human), UniProt O95497, T26I). The experiment in a line: Vanin-1 enzymatic assay. It is filed as biochemical. The conditions noted are these: 0.1 nM Vanin-1, 3 μM D-pantethine, pantothenic acid formation by RapidFire MS; geometric mean if multiple measurements; read-out: VNN 1 IC50. The method, then: The test compounds are dissolved in 100% DMSO at a concentration of 10 mM and in a first step diluted in DMSO to a concentration of 5 mM, followed by serial dilution steps in 100% DMSO. Dilution factor and number of dilution steps may vary according to needs. Typically 8 different concentrations by 1:5 dilutions are prepared, a further intermediate dilutions of the substances is carried out with assay buffer resulting in 1% final DMSO concentration in the assay.
0.1 nM of FLAG-tagged Vanin-1 (AA 22-493, T26I, produced internally) and test compounds are incubated at room temperature for 20 minutes in assay buffer (1 mM DTT, 0.0025% Brij-35, 50 mM HEPES, pH7.5). D-Pantethine (Sigma, Cat #P2125-5G) in assay buffer is added (final concentration 3 μM) and incubated for additional 30 minutes at room temperature. Total assay volume typically is 40 μl but might be adjusted according to needs. Reaction is stopped by adding equal volume of stop solution as the reaction mixture to reach 100 nM HD-pantothenic acid (as an internal standard) and 1% TFA. Assay plates are centrifuged for 2 minutes and the formation of pantothenic acid is detected by RapidFire Mass Spectrometry (mobile phase A: 0.1% formic acid and 0.01% trifluoroacetic acid in water; mobile phase B: 47.5% acetonitrile, 47.5% methanol, 0.1% formic acid and 0.01% trifluoroacetic acid in water) using a C18, 12 μL cartridge (Agilent Cat #G9205A).
The values given in Table I result from measurements of one or more samples. In case of multiple measurements the geometric mean values are given.

The next assay deals with Pantetheinase (vanin). The experiment in a line: Human Whole Blood assay. It is filed as cell-based. The conditions noted are these: pantethine substrate, pantothenic acid formation by RapidFire MS, read-out: HWB IC50. The procedure: Pantetheinase (vanin) converts panteheine into pantothenic acid and cysteamine. Accordingly, in the described protocol vanin activity is quantified by formation of pantothenic acid after pantetheine supplementation via pantethine. The assay is applicable to identify vanin inhibitors. Compound stocks are dissolved in DMSO at 10 mM. Further dilutions are performed in RPMI 1640 medium (Gibco, #A-10491-01) and final concentrations in the assay are 0.032 nM-500 nM.
Human blood is drawn into a blood bag (1% heparin, 50 I.E./mL). Blood is aliquoted into cavities of 96-deep-well plates at 290 μL and mixed with 10 μL compound solution or vehicle (30 sec at 1400 rpm on a shaker). Equilibration follows at room temperature, 250 rpm and for 30 min. The assay is starts by adding 10 μL of substrate solution (20 μM pantethine in 1 mM DTT, 0.0025% Brij-35, 50 mM HEPES, pH7.5) to each well, except for some blank wells which receive […] substrate buffer (1 mM DTT, 0.0025% Brij-35, 50 mM HEPES, pH7.5) only. Samples are thoroughly shaken (30 sec, 1400 rpm) and reaction is allowed to take place at room temperature, 250 rpm and for 5 min. The reaction is stopped by addition of a vanin tool inhibitor in excess (BI-1 total conc. 10 μM). Centrifugation of the plate follows at 4° C., 665 G for 10 min. Then the blood plasma samples (100 μL) are transferred into another 96-deep-well plate and proteins are precipitated (5 min on ice) by adding 100 μL of ice cold precipitation solution (1 μM labelled pantothenic acid (di-β-alanine-13C6,15N2 calcium salt, Sigma, #705837) in acetonitrile). Afterwards the plate is centrifuged (4° C., 3220 G, 10 min) and supernatants (50 μL) are collected into another 96-deep-well plate and mixed (10 sec, 1400 rpm) with 150 μL ice cold formic acid (0.1%, Carl Roth GmbH+Co.KG, #CP03.1). The formation of pantothenic acid is detected by RapidFire Mass Spectrometry. A TripleQuad 6500+ (ABSciex, Germany) is equipped with an LC-1290 system, a RapidFire autosampler (Agilent, Germany) and a C18 cartridge Type C 12 μL (Agilent Cat #G9526-80000). Mobile phase A is consisting of 0.09% formic acid and 0.01% trifluoroacetic acid in water and mobile phase B of 0.09% formic acid and 0.01% trifluoroacetic acid in acetonitrile/methanol/water=47.5/47.5/5.

pIC50: −log10 of the molar value.

FLAG-tagged Vanin-1 (AA 22-493, T26I), sequence (O95497 22-493 T26I): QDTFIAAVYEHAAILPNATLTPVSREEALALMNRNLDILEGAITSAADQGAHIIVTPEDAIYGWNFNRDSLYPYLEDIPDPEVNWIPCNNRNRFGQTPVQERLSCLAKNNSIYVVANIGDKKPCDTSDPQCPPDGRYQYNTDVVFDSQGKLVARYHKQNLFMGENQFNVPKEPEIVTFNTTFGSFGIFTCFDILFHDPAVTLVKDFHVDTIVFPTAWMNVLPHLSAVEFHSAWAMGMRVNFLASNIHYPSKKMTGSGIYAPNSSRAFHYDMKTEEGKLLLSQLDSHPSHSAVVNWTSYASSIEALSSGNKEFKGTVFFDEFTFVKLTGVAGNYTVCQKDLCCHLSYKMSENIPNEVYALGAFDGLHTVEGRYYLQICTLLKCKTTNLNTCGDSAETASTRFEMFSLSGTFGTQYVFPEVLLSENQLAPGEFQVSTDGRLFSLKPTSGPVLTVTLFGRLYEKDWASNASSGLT

A word on the pIC50: it is −log10 of the IC50, conventionally taken in molar units. Consider `CC(=O)N(C)[C@H]1CCN(C(=O)c2ccc(NC(C)(C)CCn3cncn3)nc2)C1` [Example 3.4], for which the pIC50 in assay [1] is 8.68.

With `CC(=O)N(C)[C@H]1CCN(C(=O)c2ccc(NC(C)(C)CCO)nc2)C1` [Example 3.1, N-[(3S)-1-{6-[(4-Hydroxy-2-methylbutan-2-yl)amino]pyridine-3-carbonyl}pyrrolidin-3-yl]-N-methylacetamide], the figures for the pIC50 (in assay [1]; with Pantetheinase (vanin)) were 9.70 and 8.80, respectively.

`CN(C(=O)N1CCOCC1)[C@H]1CCN(C(=O)c2ccc(NC(C)(C)C)nc2)C1` [Example 4.1, N-[(3S)-1-[6-(tert-Butylamino)pyridine-3-carbonyl]pyrrolidin-3-yl]-N-methylmorpholine-4-carboxamide]: the pIC50 was 9.52 in assay [1] and 8.49 with Pantetheinase (vanin).

As for `CN(C(=O)C1CC1)[C@H]1CCN(C(=O)c2ccc(NC34CC(C3)C4)nc2)C1` [Example 2.6], the pIC50 is 9.40 in assay [1] and 8.04 with Pantetheinase (vanin).

Turning to `CC(=O)N(C)[C@H]1CCN(C(=O)c2ccc(NC(C)(C)C(C)C)nc2)C1` [Example 2.2], the pIC50 in assay [1] is 9.40; with Pantetheinase (vanin), 8.11.

For the molecule `CC(=O)N(C)[C@@H]1CCN(C(=O)c2ccc(NC(C)(C)C)nc2)C1` [Example 5.2], the pIC50 in the assay on Pantetheinase (vanin) was 6.57.

As to `CN(C(=O)C1(C#N)CC1)[C@H]1CCN(C(=O)c2ccc(NC(C)(C)C)nc2)C1` [Example 1.8], the pIC50 in assay [1] is 9.52; in the assay on Pantetheinase (vanin), 8.24.

With `CN(C(=O)c1cc(C(F)(F)F)nn1C)[C@H]1CCN(C(=O)c2ccc(NC(C)(C)C)nc2)C1` [Example 1.7], the pIC50 is 9.52 in assay [1] and 8.30 with Pantetheinase (vanin).

Take `CN1CCN(C(=O)N(C)[C@H]2CCN(C(=O)c3ccc(NC(C)(C)C)nc3)C2)CC1` [Example 4.2]: in assay [1], the pIC50 was 8.92.

Regarding `CCC(C)(C)Nc1ccc(C(=O)N2CC[C@H](N(C)C(C)=O)C2)cn1` [Example 3.2], the pIC50 in assay [1] was 9.70; with Pantetheinase (vanin), 8.51.

In the case of `CC(C)(C)Nc1ccc(C(=O)N2CC[C@H](N3CCOC3=O)C2)cn1` [Example 1.6], the pIC50 in assay [1] was 9.52; with Pantetheinase (vanin) it was 8.40.

As to `CN(C(=O)C1CCOC1)[C@H]1CCN(C(=O)c2ccc(NC(C)(C)C)nc2)C1` (some centres unmarked) [Example 1.10], the pIC50 in assay [1] is 9.40.

Turning to `CN(C(=O)C1CC1)[C@H]1CCN(C(=O)c2ccc(NC3(C)CCOCC3)nc2)C1` [Example 2.5], in assay [1], the pIC50 was 8.14.

Consider `CN(C(=O)C1CC1)[C@H]1CCN(C(=O)c2ccc(NC(C)(C)C)nc2)C1` [Example 1.5], for which the results for the pIC50 (in assay [1]; with Pantetheinase (vanin)) were 9.52 and 8.38, respectively.

As for `CC(C)(C)Nc1ccc(C(=O)N2CC[C@H](N3CCCCC3=O)C2)cn1` [Example 1.14], the results for the pIC50 (in assay [1]; in the assay on Pantetheinase (vanin)) were 9.10 and 7.90, respectively.

For the molecule `Cc1cc(C(=O)N(C)[C@H]2CCN(C(=O)c3ccc(NC(C)(C)C)nc3)C2)[nH]n1` [Example 1.12], the negative logarithm of the IC50 (pIC50) is 9.40 in assay [1] and 8.01 in the assay with Pantetheinase (vanin).

Regarding `CC1CN([C@H]2CCN(C(=O)c3ccc(NC(C)(C)C)nc3)C2)C(=O)O1` (stereo partly drawn) [Example 6, 3-[(3S)-1-[6-(tert-Butylamino)pyridine-3-carbonyl]pyrrolidin-3-yl]-5-methyl-1,3-oxazolidin-2-one], in assay [1], the pIC50 is 8.80.

With `CN(c1ncccn1)[C@H]1CCN(C(=O)c2ccc(NC(C)(C)C)nc2)C1` [Example 1.13], the pIC50 in assay [1] was 9.40; in the assay with Pantetheinase (vanin) it was 7.90.

For `CN(C(=O)C1CCC1)[C@H]1CCN(C(=O)c2ccc(NC(C)(C)C)nc2)C1` [Example 1.1, N-[(3S)-1-[6-(tert-Butylamino)pyridine-3-carbonyl]pyrrolidin-3-yl]-N-methylcyclobutanecarboxamide], the results for the pIC50 (in assay [1]; with Pantetheinase (vanin)) were 9.70 and 8.37, respectively.

`CN(C(=O)C1CC1)[C@H]1CCN(C(=O)c2ccc(NC3(C)CCCC3)nc2)C1` [Example 2.3]: in assay [1], the pIC50 is 9.15.

On to `CC(C)(C)Nc1ccc(C(=O)N2CC(C)(c3ccccn3)C2)cn1` [Example 8, N-tert-Butyl-5-[3-methyl-3-(pyridin-2-yl)azetidine-1-carbonyl]pyridin-2-amine], for which the pIC50 in assay [1] was 9.52; in the assay with Pantetheinase (vanin), 8.57.

For `CN(C(=O)[C@@H]1CCCO1)[C@H]1CCN(C(=O)c2ccc(NC(C)(C)C)nc2)C1` [Example 1.3], the pIC50 was 9.52 in assay [1] and 8.57 in the assay with Pantetheinase (vanin).

On to `CN(C(=O)[C@H]1CCCO1)[C@H]1CCN(C(=O)c2ccc(NC(C)(C)C)nc2)C1` [Example 1.15], for which the pIC50 in assay [1] was 9.00.

For `CC1(C#N)CCN(C(=O)c2ccc(NC(C)(C)C)nc2)C1` (single isomer, unassigned) [Example 7, 1-[6-(tert-Butylamino)pyridine-3-carbonyl]-3-methylpyrrolidine-3-carbonitrile], the pIC50 in assay [1] was 9.52; with Pantetheinase (vanin), 8.41.

For the molecule `CC1(Nc2ccc(C(=O)N3CC[C@H](N4CCCC4=O)C3)cn2)CCCCC1` [Example 2.4], the pIC50 in assay [1] is 8.77.

On to `CN(C(=O)c1ccc(Cl)s1)[C@H]1CCN(C(=O)c2ccc(NC(C)(C)C)nc2)C1` [Example 1.4], for which the figures for the pIC50 (in assay [1]; in the assay with Pantetheinase (vanin)) were 9.52 and 7.60, respectively.

Consider `CN(C(=O)c1ccc(F)cc1)[C@H]1CCN(C(=O)c2ccc(NC(C)(C)C)nc2)C1` [Example 1.11], for which the results for the pIC50 (in assay [1]; in the assay on Pantetheinase (vanin)) were 9.40 and 8.12, respectively.

In the case of `CN(C(=O)C1CC(F)(F)C1)[C@H]1CCN(C(=O)c2ccc(NC(C)(C)C)nc2)C1` [Example 1.2], the pIC50 in assay [1] was 9.70; with Pantetheinase (vanin), 8.44.

As to `CC(=O)N(C)[C@H]1CCN(C(=O)c2ccc(NC(C)(C)C)nc2)C1` [Example 5.1, N-[(3S)-1-[6-(tert-Butylamino)pyridine-3-carbonyl]pyrrolidin-3-yl]-N-methylacetamide], the pIC50 in assay [1] was 9.30; in the assay on Pantetheinase (vanin), 8.49.

Turning to `CN(C(=O)CN1CCOCC1)[C@H]1CCN(C(=O)c2ccc(NC(C)(C)C)nc2)C1` [Example 1.16], the pIC50 in assay [1] was 8.89.

On to `CC(C)(C)Nc1ccc(C(=O)N2CC[C@H](N3CCCC3=O)C2)cn1` [Example 1.9], for which the pIC50 was 9.40 in assay [1] and 8.51 in the assay on Pantetheinase (vanin).

With `CC(=O)N(C)[C@H]1CCN(C(=O)c2ccc(NC(C)(C)Cc3ccc(F)cc3)nc2)C1` [Example 3.3], the pIC50 in assay [1] is 9.40; in the assay on Pantetheinase (vanin), 8.06.

As for `CN(C(=O)C1CC1)[C@H]1CCN(C(=O)c2ccc(NC3(C)CCC3)nc2)C1` [Example 2.1, N-Methyl-N-[(3S)-1-{6-[(1-methylcyclobutyl)amino]pyridine-3-carbonyl}pyrrolidin-3-yl]cyclopropanecarboxamide], the pIC50 was 9.52 in assay [1] and 8.34 with Pantetheinase (vanin).
